Test results from publication PMC4791210 (International immunopharmacology, 2015).

Experiments:
human neutrophils [1] = details: cited from earlier work; for Inhibition of fMLF-induced Ca2+ mobilization in human neutrophils / Inhibition of fMLF-induced Ca2+ flux in neutrophils: result in words
[2] = system: fMLF-stimulated neutrophils; details: list of responses inhibited; ref per compound in References column of Table 1; cited from earlier work
human neutrophils [3] = details: result in words; no data shown; cited from earlier work
FPR1 [4] = target: T1, FPR1 (Homo sapiens, UniProt P21462); details: result in words; cited from earlier work
T1 sequence (P21462 1-350): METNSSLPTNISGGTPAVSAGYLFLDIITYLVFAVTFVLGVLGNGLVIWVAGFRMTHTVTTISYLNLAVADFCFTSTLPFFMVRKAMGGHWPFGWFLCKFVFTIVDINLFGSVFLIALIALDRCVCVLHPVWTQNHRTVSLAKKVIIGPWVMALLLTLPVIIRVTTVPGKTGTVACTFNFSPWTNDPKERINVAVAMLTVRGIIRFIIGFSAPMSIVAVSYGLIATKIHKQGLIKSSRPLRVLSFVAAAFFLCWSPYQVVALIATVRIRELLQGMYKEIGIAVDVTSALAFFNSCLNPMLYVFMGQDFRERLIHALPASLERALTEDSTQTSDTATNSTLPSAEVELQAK

FPR1 [5] = target: T1, FPR1; details: cited from earlier work
FPR1 [6] = target: T1, FPR1; details: result in words; no data shown; cited from earlier work
FPR1 [7] = details: high concentrations; cited from earlier work
human neutrophils [8] = assay: Direct activation of Ca2+ flux in human neutrophils; type: cell-based; details: Neutrophil, read-out: Human Neutrophils Activation (EC50, μM)
FPR1 [9] = target: T1, FPR1; assay: Direct activation of Ca2+ flux in FPR1 transfected HL-60 cells; type: cell-based
FPR1 [10] = target: T1, FPR1; details: human neutrophils; cited from earlier work
neutrophils = details: read-out: IC50, inhibition of fMLF-stimulated neutrophil degranulation; cited from earlier work
rat neutrophils = details: fMLF-stimulated rat neutrophils, cited from earlier work
FPR1 [11] = details: cited from earlier work
monocytes = details: read-out: IC50, inhibition of fMLF-induced monocyte locomotion; cited from earlier work
FPR2 = details: cited from earlier work
FPR1 [12] = target: T1, FPR1; details: read-out: IC50, displacement of [3H]-fMLF; FPR1-transfected RBL cells; cited from earlier work
[13] = animal experiments; cited from earlier work
[14] = animal experiments; cited from earlier work; remark: listed apart in the source

Compound: O=c1c(-c2ccccc2)coc2cc(O)ccc12 [7-hydroxyisoflavone]
- Inhibition of fMLF-induced Ca2+ mobilization in human neutrophils (human neutrophils [1]): none

Compound: COc1ccc(CCN(C)C(=O)/C=C/c2ccc(O)cc2)cc1 [Ailanthamide]
- fMLF-induced Responses Inhibited in Neutrophils [2]: O2^−· production, HNE release

Compound: COc1cc2oc(=O)ccc2c2c1C=CC(C)(C)O2 [Alloxanthoxyletin]
- fMLF-induced Responses Inhibited in Neutrophils [2]: O2^−· production, HNE release

Compound: CC(=O)OCC(Cc1ccccc1)NC(=O)C(Cc1ccccc1)NC(=O)c1ccccc1 (stereo not drawn) [Aurantiamide acetate, aurantiamide acetate]
- fMLF-induced Responses Inhibited in Neutrophils [2]: O2^−· production

Compound: COc1c2ccoc2cc2oc(=O)ccc12 [Bergapten]
- fMLF-induced Responses Inhibited in Neutrophils [2]: O2^−· production, HNE release

Compound: COc1ccc(-c2coc3cc(O)cc(O)c3c2=O)cc1 [Biochanin A]
- Direct agonist activity in primary neutrophils (human neutrophils [3]): direct agonist activity
- Inhibition of fMLF-induced Ca2+ mobilization in human neutrophils (human neutrophils [1]): inhibited
- Inhibition of fMLF-induced Ca2+ flux in FPR1-HL60 cells (FPR1 [4]): inhibited
- Inhibition of binding of labeled ligand (WKYMVm-FITC) to FPR1-HL60 cells (FPR1 [5]): did not inhibit binding
- Direct agonist activity in FPR1-HL60 cells (FPR1 [6]): direct agonist activity

Compound: C/C(=C/Cc1c(O)cc2oc(C)cc(=O)c2c1O)CO [Cnidimol A]
- fMLF-induced Responses Inhibited in Neutrophils [2]: O2^−· production, HNE release

Compound: COc1c(O)ccc2c1cnc1c3cc4c(cc3ccc21)OCO4 [Decarine]
- fMLF-induced Responses Inhibited in Neutrophils [2]: O2^−· production, HNE release

Compound: C=C(C)C(O)Cc1c(O)ccc2ccc(=O)oc12 (stereo not drawn) [Demethylauraptenol]
- fMLF-induced Responses Inhibited in Neutrophils [2]: O2^−· production, HNE release

Compound: C[C@H](CCC(=O)O)[C@H]1CC[C@H]2[C@@H]3CC[C@@H]4C[C@H](O)CC[C@]4(C)[C@H]3C[C@H](O)[C@]12C [Deoxycholic acid (DCA), Deoxycholic acid]
- Concentrations that antagonize FPR1 and inhibit 3H-fMLF binding (FPR1 [7]): ≥ 100 µM
- EC50 (human neutrophils [8]): 49 ± 5.4 µM
- EC50 (FPR1 [9]): 40.9 ± 5.5 µM

Compound: C=C(C)[C@@H]1CC[C@]2(C(=O)O)CC[C@]3(C)[C@H](CC[C@@H]4[C@@]5(C)CC[C@@H](O)C(C)(C)[C@@H]5CC[C@]43C)[C@@H]12 [Epibetulinic acid]
- fMLF-induced Responses Inhibited in Neutrophils [2]: O2^−· production

Compound: Cc1cc2ccc3c(c2cc1O)CCC(=O)C3(C)C [Flueggrene A]
- fMLF-induced Responses Inhibited in Neutrophils [2]: O2^−· production, HNE release

Compound: C=C(C)[C@@H](CC=C(C)C)C[C@@]12C[C@@H](CC=C(C)C)C(C)(C)[C@]3(C=CC(C)(C)OC3=C(C(=O)c3ccccc3)C1=O)C2=O [Garcimultiflorone B]
- fMLF-induced Responses Inhibited in Neutrophils [2]: O2^−· production, HNE release

Compound: COC(=O)C(C)CCC[C@]1(C)CC[C@]2(O1)C(=O)C(C)=C(C)[C@@]2(O)C(C)=O (stereo partly drawn) [Hirsutocospiro A]
- fMLF-induced Responses Inhibited in Neutrophils [2]: O2^−· production, HNE release

Compound: CC(C)=CCOc1c2occc2cc2ccc(=O)oc12 [Imperatorin]
- fMLF-induced Responses Inhibited in Neutrophils [2]: O2^−· production
- EC50 (human neutrophils [8]): 31.1 ± 3.6 µM
- EC50 (FPR1 [9]): 50.9 ± 4.7 µM

Compound: C=C1[C@H]2[C@@H]([C@@H](C(C)C)C[C@@H]1O)[C@H]1O[C@@H]2C[C@](C)(O)[C@@H](OC(=O)Cc2ccccc2)CC[C@@]1(C)OC(=O)CCC [Klymollin M]
- fMLF-induced Responses Inhibited in Neutrophils [2]: O2^−· production, HNE release

Compound: COc1cc(O)c2c(=O)c(OC)c(-c3ccc(O)c(OC)c3)oc2c1 [MSF-2, 5-hydroxy-2-(4-hydroxy-3-methoxyphenyl)-3,7-dimethoxy-4H-chromen-4-one]
- Interference with fMLF binding (FPR1 [10]): did not interfere

Compound: CC1(C)CC[C@]2(C(=O)O)CC[C@]3(C)C(=CC[C@@H]4[C@@]5(C)CC[C@H](O)C(C)(C)[C@@H]5CC[C@]43C)[C@@H]2C1 [Oleanolic acid]
- fMLF-induced Responses Inhibited in Neutrophils [2]: O2^−· production, HNE release

Compound: CC(C)=CCc1c(O)ccc2ccc(=O)oc12 [Osthenol]
- fMLF-induced Responses Inhibited in Neutrophils [2]: O2^−· production, HNE release

Compound: COC1=CC(=O)c2cc(-c3ccc(OC)c(O)c3)c3cc(O)c(OC)cc3c2C1=O [Pterolinus K]
- fMLF-induced Responses Inhibited in Neutrophils [2]: O2^−· production, HNE release

Compound: C=CCc1ccc(O)c(-c2cc(O)ccc2O)c1 [Randaiol]
- fMLF-induced Responses Inhibited in Neutrophils [2]: O2^−· production and HNE release

Compound: C=C(CO)[C@@H]1CC[C@]2(C)CC[C@]3(C)[C@H](CC[C@@H]4[C@@](C)(CC(=O)O)[C@H](C(C)(C)C(=O)O)CC[C@]43C)[C@@H]12 [Triterpene 17, 30-hydroxy-2,3-seco-lup-20(29)-ene-2,3-dioic acid]
- fMLF-induced Responses Inhibited in Neutrophils [2]: O2^−· production, HNE release

Compound: COc1cc(CCCc2c(OC)cc(O)c(OC)c2OC)ccc1O [Viscolin]
- Inhibition of fMLF-induced Ca2+ flux in neutrophils (human neutrophils [1]): did not inhibit

Compound: CC1(C)C=Cc2cc3ccc(=O)oc3cc2O1 [Xanthyletin]
- fMLF-induced Responses Inhibited in Neutrophils [2]: O2^−· Production, HNE release

Compound: COc1ccc(-c2coc3cc(O)c(OC)cc3c2=O)cc1 [afrormosin]
- IC50 (neutrophils): ~67 µM
- Inhibition of fMLF-induced Ca2+ mobilization in human neutrophils (human neutrophils [1]): none

Compound: COc1c(C(=O)CCc2ccccc2)c(O)c(O)c2c1/C(=C/c1ccccc1)C(=O)O2 [bractelactone]
- Inhibition of fMLF-induced Ca2+ flux in neutrophils (human neutrophils [1]): did not inhibit

Compound: O=c1c(-c2ccc(O)cc2)coc2cc(O)ccc12 [daidzein]
- Inhibition of fMLF-induced Ca2+ mobilization in human neutrophils (human neutrophils [1]): none

Compound: COc1ccc(-c2coc3cc(O)ccc3c2=O)cc1 [formononetin]
- Inhibition of fMLF-induced Ca2+ mobilization in human neutrophils (human neutrophils [1]): none

Compound: O=c1c(-c2ccc(O)cc2)coc2cc(O)cc(O)c12 [genistein]
- Inhibition of fMLF-induced Ca2+ mobilization in human neutrophils (human neutrophils [1]): none and did not antagonize
- Inhibition of fMLF-induced Ca2+ flux in FPR1-HL60 cells (FPR1 [4]): did not antagonize

Compound: COc1c(O)c(OC)c2c(c1OC)O[C@H](c1ccccc1)CC2=O [isopedicin]
- Inhibition of fMLF-induced Ca2+ flux in neutrophils (human neutrophils [1]): did not inhibit

Compound: CC[C@H](CC[C@@H](C)[C@H]1CC[C@H]2[C@@H]3CC(=O)C4=CC(=O)CC[C@]4(C)[C@H]3CC[C@]12C)C(C)C [stigmast-4-ene-3,6-dione]
- Concentrations that inhibited O2−· production (rat neutrophils): 30 to 100 µM

Compound: CC[C@H](CC[C@@H](C)[C@H]1CC[C@H]2[C@@H]3CC(=O)C4CC(=O)CC[C@]4(C)[C@H]3CC[C@]12C)C(C)C (stereo partly drawn) [stigmastane-3,6-dione]
- Inhibition of O2−· production (rat neutrophils; result in words): non-active

Compound: C[C@H](CCC(=O)NCCS(=O)(=O)O)[C@H]1CC[C@H]2[C@@H]3[C@@H](O)C[C@@H]4C[C@H](O)CC[C@]4(C)[C@H]3CC[C@]12C [tauroursodeoxycholic acid]
- IC50 (human neutrophils [1]; read-out: IC50, inhibition of fMLF-induced Ca2+ mobilization): ~500 µM

Compound: (+)-Episesamin
- fMLF-induced Responses Inhibited in Neutrophils [2]: O2^−· production, HNE release

Compound: Aristolatams IIIa
- fMLF-induced Responses Inhibited in Neutrophils [2]: O2^−· production, HNE release

Compound: Berryammone A
- fMLF-induced Responses Inhibited in Neutrophils [2]: O2^−· production, HNE release

Compound: Berryammone B
- fMLF-induced Responses Inhibited in Neutrophils [2]: O2^−· production, HNE release

Compound: Lawsochylin A
- fMLF-induced Responses Inhibited in Neutrophils [2]: O2^−· production, HNE release

Compound: Lawsonaphthoate A
- fMLF-induced Responses Inhibited in Neutrophils [2]: O2^−· production, HNE release

Compound: cyclized SRSRY: cyclized form of urokinase receptor-derived peptide Ser-Arg-Ser-Arg-Tyr (not fully specified; cyclized; printed: Ser-Arg-Ser-Arg-Tyr)
- Binding of FITC-labeled fMLF to FPR1 transfected cells (FPR1 [11]): inhibited binding
- IC50 (monocytes): 0.01 nM

Compound: cyclosporine A [CsA]
- Inhibitory effects on FPR2-mediated cellular functions (FPR2): did not exhibit any obvious inhibitory effects
- IC50 (FPR1 [12]): 1.8 µM

Compound: cyclosporine H [CsH]
- Inhibitory effects on FPR2-mediated cellular functions (FPR2): did not exhibit any obvious inhibitory effects
- Effect on acute inflammatory response evoked by cigarette smoke [13]: attenuated
- Effect on fMLF-induced analgesia [14]: blocked

Compound: hecogenin
- Concentrations that inhibited O2−· production (rat neutrophils): 30 to 100 µM
